Read-outs that look alike come from different tables or passages of the source.
Legend:
[1] = Pharmacokinetic analysis of irinotecan and metabolites in patient plasma; type: in vivo, human; conditions: for SN-38 AUC, mean / SN-38^b AUC, mean: after irinotecan; for AUC: human, plasma, 350 mg/m2, Irinotecan AUC, mean
Description: Venous blood for pharmacokinetic analysis was collected on day 1 of cycle 1 for pharmacokinetic analysis. Samples of 7 ml were collected into green top sodium heparinized Vacutainer® tubes prior to the infusion; 30, 60, and 90 minutes during the infusion; and 10, 20, 30, 45, and 60 minutes and 1.5, 2, 4, 6, 12, and 24 hours after the infusion. Samples were centrifuged (2500 rpm, 20 min, 4° C.) and the plasma was immediately separated, transferred as two aliquots into storage tubes, frozen at −80° C. until analysis.
The glucuronidation ratio was expressed as the ratio of the SN-38G AUC over SN-38 AUC.

UGT1A1 = target: T1, UGT1A1 (Homo sapiens, UniProt P22309); assay: SN-38 glucuronidation assay in human liver microsomes; type: in vitro ADME; conditions: for SN-38 glucuronidation rate: Caucasians
T1 construct: microsomes were isolated following differential centrifugation methods; tissue Liver Tissue Procurement and Distribution System; Liver Core Bank Facility (St. Jude Children's Research Hospital); host or cells: normal human liver microsomes (n=83 donors)
T1 sequence (P22309 26-533): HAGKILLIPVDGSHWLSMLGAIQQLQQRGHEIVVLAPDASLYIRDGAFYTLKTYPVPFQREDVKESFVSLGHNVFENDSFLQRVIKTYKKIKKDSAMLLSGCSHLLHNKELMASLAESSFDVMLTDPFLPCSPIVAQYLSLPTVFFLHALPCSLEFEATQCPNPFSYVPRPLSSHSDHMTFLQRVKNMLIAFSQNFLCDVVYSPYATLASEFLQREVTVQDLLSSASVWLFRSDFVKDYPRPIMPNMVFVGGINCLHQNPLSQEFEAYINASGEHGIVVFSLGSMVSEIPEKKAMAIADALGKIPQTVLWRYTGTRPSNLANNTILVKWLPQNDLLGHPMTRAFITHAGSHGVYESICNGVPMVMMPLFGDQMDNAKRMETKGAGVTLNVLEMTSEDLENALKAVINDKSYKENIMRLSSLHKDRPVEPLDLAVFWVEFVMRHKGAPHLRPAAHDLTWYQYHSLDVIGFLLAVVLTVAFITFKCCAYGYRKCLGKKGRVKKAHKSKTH
From the text: Normal human livers (n=83) were mainly obtained from Liver Tissue Procurement and Distribution System (National Institutes of Diabetes and Digestive and Kidney Diseases, Minneapolis, Minn.). DNA was isolated by using Qiagen RNA/DNA Maxi Kit (Qiagen Inc., Valencia, Calif., USA), and microsomes were isolated following differential centrifugation methods (Purba et al., 1987). DNA and microsomes were provided by the Liver Core Bank Facility (St. Jude Children's Research Hospital) of the Pharmacogenetics of Anticancer Agents Research (PAAR) Group. In order to identify livers in which enzyme degradation occurred, liver samples consistently comprised in the 10th percentile of UGT1A1, UGT1A9 and UGT2B7 activities were sought. UGT1A9 and UGT2B7 activities were measured using specific probes (data not shown) (Ramirez et al., 2002 and Innocenti, et al., 2001). Out of eight samples within the 10th percentile of UGT1A1, only one sample was comprised within the 10th percentile of activities of the other two enzyme activities.
Samples were phenotyped by using SN-38 as a substrate for UGT1A1. The incubation mixture consisted of 5 μmol SN-38, 10 mmol MgCl2, 1 mg/ml microsomes, 0.025 mol Tris-HCl (pH 7.4) and 5 mmol UDP-GA. Samples were incubated for 30 min at 37° C. The reaction was stopped by the addition of methanol. These conditions were selected after previous optimization of the enzyme reaction (Iyer et al., 1998). Camptothecin (75 ng) was used as an internal standard. SN-38 glucuronidation was measured by HPLC (Hitachi Instruments Inc., San Jose, Calif., USA) with fluorescence detection (λ excitation=355 nm, λ emission=515 nm). A μBondapak™ C18 column (3.9×300 mm, 10 μm; Waters Corp., Milford, Mass., USA) and μBondapak™ C18 guardpak (Waters Corp.) were used. A mobile phase of […] acetonitrile/tetra-hydrofuran/0.9 mmol sodium heptanedfonic acid in 50 mmol potassium dihydrogen phosphate (pH 4) was used during the first 7 min of the run. From 7.1-25 min, the eluent consisted of 30/70 acetonitrile/5 mmol sodium heptanesulfonic acid in 50 mmol potassium dihydrogen phosphate (pH 4). The flow rate was 0.9 ml/min. […] The intra-assay variability was determined by performing 10 incubations on the same day using a pool of human liver microsomes. The inter-assay variability was evaluated by incubating a pool of human liver microsomes in triplicate on three different days. […]
UGT1A1 activity was phenotyped by measuring SN-38 glucuronidation rates of each liver as the mean±SD of a single experiment performed in triplicate. […] Moreover, trend analysis and pairwise comparisons were performed in genotypes expressed as the sum of TA repeats in both chromosomes (i.e. in samples with […] (5/6, 6/6, 5/7), 13 (6/7) and […] (7/7, 6/8, 7/8) TA repeat genotypes). […]

UGT1A isoforms = assay: In vitro TAS-103 and SN-38 glucuronidation activity in species deficient in UGT1A isoforms; type: in vitro ADME; conditions: Gunn rats and CN-1 patients deficient in UGT1A isoforms
From the text: On the other hand, while isoforms of the UGT1 family are the predominate isoforms involved in TAS-103 glucuronidation, the isoform of the UGT2 family may also participate in TAS-103 glucuronidation. Failure to glucuronidate SN-38 and TAS-103 in these instances may result specifically from the genetic defect in UGT1 gene family.

[2] = system: patients with solid tumors or lymphoma
patients = conditions: cited from earlier work
solid tumors or lymphoma = assay: Objective tumor response in patients given irinotecan; type: in vivo, human
[3] = TA indel genotype 6/6, 30 patients
[4] = TA indel genotype 6/7, 25 patients
[5] = TA indel genotype 7/7, 6 patients

Question: Which results are given for `CCc1c2c(nc3ccc(O)cc13)-c1cc3c(c(=O)n1C2)COC(=O)[C@]3(O)CC` [SN-38, 7-ethyl-10-hydroxycamptothecin]?
Answer: Glucuronidation Ratio (SN-38G AUC/SN-38 AUC), mean [1, 3]: 6.52; SN-38 AUC, mean [1, 3]: 0.3359 µg·h/mL; SN-38^b AUC, mean [1, 3]: 1.9542 µg·h/mL; Glucuronidation Ratio (SN-38G AUC/SN-38 AUC), mean [1, 4]: 5.55; SN-38 AUC, mean [1, 4]: 0.4584 µg·h/mL; SN-38^b AUC, mean [1, 4]: 1.8879 µg·h/mL; Glucuronidation Ratio (SN-38G AUC/SN-38 AUC), mean [1, 5]: 3.59; SN-38 AUC, mean [1, 5]: 0.542 µg·h/mL; SN-38^b AUC, mean [1, 5]: 1.8191 µg·h/mL; coefficient of variation of SN-38 glucuronidation (UGT1A1; 83 human liver microsomes): 46%; range in SN-38 glucuronidation (UGT1A1; 83 human liver microsomes): 10 fold; SN-38 glucuronidation rate (UGT1A1; I/I haplotype pairs): 2.53±0.82 SN-38G/IS; SN-38 glucuronidation rate (UGT1A1; I/II haplotype pairs): 2.06±0.74 SN-38G/IS; in vitro glucuronidation compared to healthy liver donors (UGT1A isoforms): no in vitro glucuronidation

Question: With `CN(C)CCNc1nc2cc(O)ccc2c2c1C(=O)c1ccccc1-2.Cl.Cl` [TAS-103, 6-[[2-(dimethylamino)ethyl]amino]-3-hydroxy-7H-indeno[2,1-c]quinoline-7-one dihydrochloride] as the molecule, how does the “lower glucuronidation rate in vitro compared to healthy liver donors” value (UGT1A isoforms) read?
Answer: ~80%

Question: Which AUC ([1]; intravenous, TA indel genotype 6/7, 25 patients) does the source give for `CCc1c2c(nc3ccc(OC(=O)N4CCC(N5CCCCC5)CC4)cc13)-c1cc3c(c(=O)n1C2)COC(=O)[C@]3(O)CC` [irinotecan, 7-ethyl-10-[4-(1-piperidino)-1-piperidino]carbonyloxycamptothecin] here?
Answer: 26.1 µg·h/mL

Question: What about the AUC ([1]; intravenous, TA indel genotype 7/7, 6 patients) of the same molecule?
Answer: 25.4 µg·h/mL

Question: And the AUC ([1]; iv, TA indel genotype 6/6, 30 patients, 350 mg/m2 90 minute i.v. infusion)?
Answer: 24.4 µg·h/mL

Question: And the “frequency of grade 4 neutropenia” value ([2]; TA indel genotype 6/6 (0/30), cycle 1)?
Answer: 0%

Question: What about the “frequency of grade 4 neutropenia” value ([2]; TA indel genotype 6/7 (3/24), cycle 1) of the same molecule?
Answer: 12.5%

Question: What about the “frequency of grade 4 neutropenia” value ([2]; TA indel genotype 7/7 (3/6), cycle 1) of the same molecule?
Answer: 50%

Question: What about the “frequency of grade 4 neutropenia” value ([2]; all assessable patients, cycle 1, 350 mg/m2 i.v. every 3 weeks) of the same molecule?
Answer: 9.5%

Question: And the “frequency of grade 3 diarrhea” value ([2]; all patients, cycle 1)?
Answer: 5%

Question: And the “grade 4 diarrhea” value ([2]; all patients, cycle 1)?
Answer: no instances

Question: What about the toxic death ([2]; neutropenia-related sepsis, 7/7 genotype, died on day 11) of the same molecule?
Answer: One toxic death

Question: What about the “patients with grade 4 neutropenia” value ([2]; out of the 7 patients with total bilirubin higher than 0.7 mg/dl) of the same molecule?
Answer: 4

Question: And the “cases of grade 4 neutropenia” value ([2]; patients with pretreatment total bilirubin less than 0.6 mg/dl)?
Answer: No cases

Question: And the “patients experiencing grade 3-4 neutropenia” value (patients; both weekly and three-weekly regimens)?
Answer: 30-40%

Question: And the “grade 3-4 diarrhea, share of patients” value (patients; early single agent trials (Negoro 1991; Rothenberg 1993))?
Answer: about one third

Question: And the “frequency of grade 3-4 diarrhea” value (patients; three-weekly regimen (Fuchs et al., 2003))?
Answer: 19%

Question: And the mortality rate (patients; three-weekly single agent regimen (Fuchs et al., 2003))?
Answer: 1.6%

Question: And the “frequency of grade 3-4 diarrhea” value (patients; weekly schedule (Fuchs et al., 2003))?
Answer: 36%

Question: And the mortality rate (patients; weekly single agent regimen (Fuchs et al., 2003))?
Answer: 5.3%

Question: What about the objective responses (solid tumors or lymphoma; 60 patients assessable for response) of the same molecule?
Answer: three objective responses

Question: And the “partial response, patients” value (solid tumors or lymphoma; colorectal and head and neck cancer, 6/7 genotype)?
Answer: Two patients

Question: What about the “complete response, patients” value (solid tumors or lymphoma; colorectal cancer, 6/6 genotype) of the same molecule?
Answer: One colorectal cancer patient

From patent publication US20040203034A1 (The University of Chicago, priority 2003, published 2004)
